One data set has as its target BCL-2 (Homo sapiens (Human), UniProt P10415). Nature of the data set: Protein-protein interaction assay BCL-2/Bad BH3 peptide (BCL-2 assay, TR-FRET). The settings on record: read-out: BCL-2 Assay IC50 (median). Type of data set: binding. Summed up: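 His-tagged BCL-2 (aa 1-211, E. coli, 1 nM) preincubated 10 min at 22° C with compound (0.1 nM-20 μM), then 1 nM biotinylated Bad BH3 peptide with anti-His-Eu/streptavidin-XL665 added. Buffer: 50 mM Tris pH 7, 100 mM NaCl, 50 mM KF, 2 mM DTT. Incubated 1 h at 22° C, then overnight at 4° C. 665/620 ratio normalized; IC50 by 4-parameter fit.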

Data set [1] concerns SUDHL5 cells. Briefly: Induction of caspase-3/7 activity in SUDHL5 cells (Assay 4). Type of data set: cell-based. Summed up: (§1)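 Caspase-3/7 activity measured in DLBCL lines after 3 h compound exposure at 37 °C, following overnight plating; Caspase-Glo 3/7 luminescence read after 1 h at 37 °C. Medium-only background subtracted, values normalized to mean of DMSO-treated cells.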

In data set [2] the test system is SUDHL10 cells. Nature of the data set: Induction of caspase-3/7 activity in SUDHL10 cells (Assay 4). Type of data set: cell-based. Summed up: as §1
In data set [3] the test system is SUDHL5 cells. Nature of the data set: Induction of cytotoxicity in SUDHL5 cells (Assay 6). Type of data set: cell-based. The settings on record: 5 h, CellTiter-Glo, read-out: Cytotox SUDHL5 IC50 (median). Summed up: (§2)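 Cells plated overnight at 37 °C, then exposed to compound for 5 h in a humidified incubator at 37 °C. Viability read by CellTiter-Glo luminescence after 15 min shaking at room temperature; cell-free medium served as control.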

In data set [4] the test system is SUDHL10 cells. Briefly: Induction of cytotoxicity in SUDHL10 cells (Assay 6). It is filed as cell-based. The settings on record: 5 h, CellTiter-Glo, read-out: Cytotox SUDHL10 IC50 (median). Summed up:
as §2

The mark [5] stands for this setting: read-out: Caspase SUDHL5 EC50 (median); caspase-3/7 induction, 3 h.
The mark [6] stands for this setting: read-out: Caspase SUDHL10 EC50 (median); caspase-3/7 induction, 3 h.
[7] abbreviates: caspase-3/7 induction, 3 h; read-out: Caspase SUDHL5 EC50 (median).
The mark [8] stands for this setting: caspase-3/7 induction, 3 h; read-out: Caspase SUDHL10 EC50 (median).
[9] abbreviates: Homo sapiens, SU-DHL-5, 3 h, caspase-3/7 induction, 3 h; read-out: Caspase SUDHL5 EC50 (median).
Setting [10] is: Homo sapiens, SU-DHL10, 3 h, caspase-3/7 induction, 3 h; read-out: Caspase SUDHL10 EC50 (median).

Where a name gives a salt, the structure may show the parent alone. Read-outs that look alike come from different tables or passages of the source. Bounds are passed on as bounds.

Chain of BCL-2 (P10415 1-211): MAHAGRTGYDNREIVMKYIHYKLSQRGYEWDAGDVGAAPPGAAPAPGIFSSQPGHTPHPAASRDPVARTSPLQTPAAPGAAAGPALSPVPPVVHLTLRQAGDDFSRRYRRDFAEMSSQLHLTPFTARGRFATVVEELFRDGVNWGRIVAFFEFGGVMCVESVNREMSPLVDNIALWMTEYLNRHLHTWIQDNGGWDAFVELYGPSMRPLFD

For `CCc1c2c(nn1C)C(CCOC)OCCCCn1c(C(=O)O)c(CCCOc3cccc4cc(F)ccc34)c3ccc(Cl)c-2c31` (single isomer, unassigned; enantiomer 1) [Example 42, (+)-4-chloro-3-ethyl-7-{3-[(6-fluoronaphthalen-1-yl)oxy]propyl}-15-(2-methoxyethyl)-2-methyl-2,10,11,12,13,15-hexahydropyrazolo[4′,3′:9,10][1,6]oxazacycloundecino[8,7,6-hi]indole-8-carboxylic Acid—N-ethylethanamine Salt (Enantiomer 1)], the IC50 (as a rule, the point on the concentration scale where inhibition reaches its midpoint) on BCL-2 was greater than 20000 nM; with SUDHL5 cells [3] it was 55 nM; in the data set on SUDHL10 cells [4], 66 nM. In addition, the concentration for a half-maximal effect (EC50) (usually the concentration at which the effect is half-maximal) with SUDHL5 cells [1] (setting [5]) was found to be 14 nM; with SUDHL10 cells [2] (setting [6]) it was 52 nM.
Turning to `CCc1c2c(nn1C)C(CCO)OCCCCn1c(C(=O)O)c(CCCOc3cccc4cc(F)ccc34)c3ccc(Cl)c-2c31` (single isomer, unassigned; enantiomer 1) [Example 45, (+)-4-chloro-3-ethyl-7-{3-[(6-fluoronaphthalen-1-yl)oxy]propyl}-15-(2-hydroxyethyl)-2-methyl-2,10,11,12,13,15-hexahydropyrazolo[4′,3′:9,10][1,6]oxazacycloundecino[8,7,6-hi]indole-8-carboxylic Acid (Enantiomer 1)], the IC50 is greater than 20000 nM at BCL-2, 76 nM in the data set with SUDHL5 cells [3] and 73 nM in the data set with SUDHL10 cells [4]. For the same compound, the EC50 with SUDHL5 cells [1] (setting [7]) was found to be 19 nM; in the data set on SUDHL10 cells [2] (setting [8]), 99 nM.
The corresponding values for `CCc1c2c(nn1C)C(CCN1CCOCC1)OCCCCn1c(C(=O)O)c(CCCOc3cccc4cc(F)ccc34)c3ccc(F)c-2c31` (single isomer, unassigned; enantiomer 1) [Example 50, (+)-3-ethyl-4-fluoro-7-{3-[(6-fluoronaphthalen-1-yl)oxy]propyl}-2-methyl-15-[2-(morpholin-4-yl)ethyl]-2,10,11,12,13,15-hexahydropyrazolo[4′,3′:9,10][1,6]oxazacycloundecino[8,7,6-hi]indole-8-carboxylic Acid (Enantiomer 1)] are greater than 20000 nM, 16 nM, 27 nM, 13 nM and 26 nM.
On to `CCc1c2c(nn1C)C(CC(C)(C)O)OCCCCn1c(C(=O)O)c(CCCOc3cccc4cc(F)ccc34)c3ccc(Cl)c-2c31` (single isomer, unassigned; enantiomer 1) [Example 53, (+)-4-chloro-3-ethyl-7-{3-[(6-fluoronaphthalen-1-yl)oxy]propyl}-15-(2-hydroxy-2-methylpropyl)-2-methyl-2,10,11,12,13,15-hexahydropyrazolo[4′,3′:9,10][1,6]oxazacycloundecino[8,7,6-hi]indole-8-carboxylic Acid—N-ethylethanamine Salt (Enantiomer 1)], for which the figures for the IC50 on BCL-2, in the data set on SUDHL5 cells [3] and with SUDHL10 cells [4] were 17000 nM, 95 nM and 190 nM, respectively. Moreover, the EC50 turned out to be 76 nM in the data set with SUDHL5 cells [1] (setting [5]) and 160 nM with SUDHL10 cells [2] (setting [6]).
The like results for `CCc1c2c(nn1C)C(CCN1CCC(F)(F)C1)OCCCCn1c(C(=O)O)c(CCCOc3cccc4cc(F)ccc34)c3ccc(Cl)c-2c31` (single isomer, unassigned; enantiomer 1) [Example 56, 4-chloro-15-[2-(3,3-difluoropyrrolidin-1-yl)ethyl]-3-ethyl-7-{3-[(6-fluoronaphthalen-1-yl)oxy]propyl}-2-methyl-2,10,11,12,13,15-hexahydropyrazolo[4′,3′:9,10][1,6]oxazacycloundecino[8,7,6-hi]indole-8-carboxylic Acid—N-ethylethanamine Salt (Enantiomer 1)] were, in that order, greater than 20000 nM, 21 nM, 39 nM, 18 nM and 20 nM.
The corresponding values for `Cc1c2c(nn1C)C(CCN1CCOCC1)OCCCCn1c(C(=O)O)c(CCCOc3cccc4ccccc34)c3ccc(F)c-2c31` (single isomer, unassigned; enantiomer 2) [Example 9, 4-fluoro-2,3-dimethyl-15-[2-(morpholin-4-yl)ethyl]-7-{3-[(naphthalen-1-yl)oxy]propyl}-2,10,11,12,13,15-hexahydropyrazolo[4′,3′:9,10][1,6]oxazacycloundecino[8,7,6-hi]indole-8-carboxylic Acid—N-ethylethanamine Salt (Enantiomer 2)] are greater than 20000 nM, 5400 nM, 16000 nM, 6400 nM and 12000 nM.
The corresponding values for `CCc1c2c(nn1C)C(CCN1CCOCC1)OCCCCn1c(C(=O)O)c(CCCOc3cccc4ccccc34)c3ccc(F)c-2c31` (single isomer, unassigned; enantiomer 2) [Example 12, 3-ethyl-4-fluoro-2-methyl-15-[2-(morpholin-4-yl)ethyl]-7-{3-[(naphthalen-1-yl)oxy]propyl}-2,10,11,12,13,15-hexahydropyrazolo[4′,3′:9,10][1,6]oxazacycloundecino[8,7,6-hi]indole-8-carboxylic Acid—N-ethylethanamine Salt (Enantiomer 2)] are greater than 20000 nM, 3300 nM, 8100 nM, 2700 nM and 7100 nM.
Regarding `Cc1c2c(nn1C)C(CCN1CCOCC1)OCCCCn1c(C(=O)O)c(CCCOc3cccc4ccccc34)c3ccc(Cl)c-2c31` (single isomer, unassigned; enantiomer 2) [Example 15, 4-chloro-2,3-dimethyl-15-[2-(morpholin-4-yl)ethyl]-7-{3-[(naphthalen-1-yl)oxy]propyl}-2,10,11,12,13,15-hexahydropyrazolo[4′,3′:9,10][1,6]oxazacycloundecino[8,7,6-hi]indole-8-carboxylic Acid (Enantiomer 2)], the IC50 is greater than 20000 nM at BCL-2, 2500 nM in the data set with SUDHL5 cells [3] and 9700 nM in the data set with SUDHL10 cells [4]. Further, the EC50 was determined as 2300 nM in the data set with SUDHL5 cells [1] (setting [7]) and 11000 nM in the data set with SUDHL10 cells [2] (setting [8]).
In the case of `Cc1c2c(nn1C)C(CCN1CCOCC1)OCCCCn1c(C(=O)O)c(CCCOc3cccc4cc(F)ccc34)c3ccc(Cl)c-2c31` (single isomer, unassigned; enantiomer 2) [Example 18, 4-chloro-7-{3-[(6-fluoronaphthalen-1-yl)oxy]propyl}-2,3-dimethyl-15-[2-(morpholin-4-yl)ethyl]-2,10,11,12,13,15-hexahydropyrazolo[4′,3′:9,10][1,6]oxazacycloundecino[8,7,6-hi]indole-8-carboxylic Acid (Enantiomer 2)], the IC50 at BCL-2 was greater than 20000 nM; in the data set on SUDHL5 cells [3] (Homo sapiens, SU-DHL-5, 5 h), 530 nM; in the data set on SUDHL10 cells [4] (Homo sapiens, SU-DHL10, 5 h), 770 nM. Also, the EC50 in the data set with SUDHL5 cells [1] (setting [9]) worked out at 530 nM; with SUDHL10 cells [2] (setting [10]) it was 2300 nM.
As for `Cc1c2c(nn1C)C(CCN1CCOCC1)OCCCCn1c(C(=O)O)c(CCCOc3cccc4cc(F)ccc34)c3ccc(F)c-2c31` (single isomer, unassigned; enantiomer 2) [Example 21, 4-fluoro-7-{3-[(6-fluoronaphthalen-1-yl)oxy]propyl}-2,3-dimethyl-15-[2-(morpholin-4-yl)ethyl]-2,10,11,12,13,15-hexahydropyrazolo[4′,3′:9,10][1,6]oxazacycloundecino[8,7,6-hi]indole-8-carboxylic Acid (Enantiomer 2)], the IC50 is greater than 20000 nM on BCL-2; 12000 nM in the data set with SUDHL5 cells [3] (Homo sapiens, SU-DHL-5, 5 h); 14000 nM in the data set on SUDHL10 cells [4] (Homo sapiens, SU-DHL10, 5 h). Moreover, the EC50 in the data set on SUDHL5 cells [1] (setting [9]) is 11000 nM; in the data set with SUDHL10 cells [2] (setting [10]), 13000 nM.
Take `CCC1OCCCCn2c(C(=O)O)c(CCCOc3cccc4ccccc34)c3ccc(Cl)c(c32)-c2c1nn(C)c2C` (single isomer, unassigned; enantiomer 2) [Example 30, (−)-4-chloro-15-ethyl-2,3-dimethyl-7-{3-[(naphthalen-1-yl)oxy]propyl}-2,10,11,12,13,15-hexahydropyrazolo[4′,3′:9,10][1,6]oxazacycloundecino[8,7,6-hi]indole-8-carboxylic Acid—N-ethylethanamine Salt (Enantiomer 2)]: the 50% inhibitory concentration (IC50) on BCL-2 was greater than 20000 nM; in the data set with SUDHL5 cells [3] it was 29000 nM; with SUDHL10 cells [4], greater than 33000 nM. In addition, the EC50 with SUDHL5 cells [1] (setting [5]) and with SUDHL10 cells [2] (setting [6]) was greater than 33000 nM in each case.
